# What was measured:
# [1] = test system: caspase-3/7 in SW480 cells; experiment: Caspase-3/7 activity assay, SW480 cells; assay type: cell-based, human; conditions: 25 μM, 24 hours, compared to CCD18Co cells
# Method: FIG. 6. • A. COMPOUND 1 arrests cells in G1. FACS analysis was performed on SW480 (lower panel) and HCT116 (upper panel) cells treated for 24 hours with either COMPOUND 1 (25 μM) (right) or control (0.5% DMSO (left). 5.5×10^6 cells were fixed and stained with propidium iodide (PI). G0/G1, S, and G2/M are indicated by arrows. • B. COMPOUND 1 selectively activates caspases in colon carcinoma cell lines. SW480 and HCT116 (left graph) cells (10^5) along with the normal colonocytes, CCD18Co (right graph) were treated with either control (0.5% DMSO) or COMPOUND 1 (25 μM). 24 hours post treatment, cells were lysed and the caspase-3/7 enzymatic activities were measured. Relative fluorescence units (RFU) were calculated by subtracting the unit values of the blank (control, without cells) from the treated samples (COMPOUND 1 or control) and plotted.
# SW480, HCT116, and CCD18Co cells were plated at 10^5 cells per well (96-well plates) for 24 hours prior to treatment. 25 μM of COMPOUND 1 or control (0.5% DMSO) was added to each well. 24 hours post treatment, cells were lysed and caspase activity was measured using a caspase-3/7 activity kit (Apo-One Homogeneous caspase-3/7 assay, #G77905, Promega). Relative fluorescence units (RFU) were obtained by subtracting the unit values of the blank (control, without cells) from the experimental measured values. […]
# cyclin D1 promoter = experiment: ChIP assay, cyclin D1 promoter in SW480 cells; assay type: cell-based, human; conditions: 25 μM
# Method: FIG. 5. COMPOUND 1 inhibits the expression of cyclin D1. • A. Cyclin D1 levels are decreased with COMPOUND 1 treatment. Western blot analysis was performed on 25 μg of SW480 whole cell lysates treated for 4, 8, or 24 hours with either 25 μM of COMPOUND 1 or control (0.5% DMSO). Immunoblotting was performed using anti-Cyclin D1 antibodies (Santa Cruz Biotechnology Inc.). • B. In vivo occupancy of cyclin D1 and c-myc promoters by CBP and p300. […] ChIP assays were performed on promoter of c-myc from SW480 cells which was treated for 8 hours with COMPOUND 1 (25 μM) or control (0.5% DMSO). CBP (AC-26, a generous gift from Dr. David Livingston, Harvard University, Boston, Mass.) or p300 (C-20, Santa Cruz Biotechnology Inc.) specific antibodies were used to evaluate the promoter occupancy by CBP or p300 in presence of COMPOUND 1 or control (DMSO) treatment.
# Formaldehyde cross-linking and chromatin immunoprecipitation assays of SW480 cells were performed as described previously (Barlev et al., “Acetylation of p53 activates transcription through recruitment of coactivators/histone acetyltransferases,” Mol. Cell 8:1243-54 (2001); El-Osta et al., “Analysis of chromatin-immunopurified MeCP2-associated fragments,” Biochem. Biophys. Res. Commun. 289:733-37 (2001); Shang et al., “Formation of the androgen receptor transcription Complex,” Mol. Cell 9:601-10 (2002)). […]
smiles,measurement,setting,value
O=C1C(Cc2ccc(O)cc2)N2C(=O)CCN(C(=O)NCc3ccccc3)C2CN1Cc1cccc2ccccc12 (centres unmarked) [COMPOUND 1],Caspase-3/7 activity,[1],specifically and significantly activated
same,Association of CBP with the cyclin D1 promoter,cyclin D1 promoter,completely and selectively blocks

# Source: patent US7531320B2, “Modulation of β-catenin/TCF-activated transcription” (priority 2003, dated 2009)
